The values below come from patent US10562854B2, “Prolyl hydroxylase inhibitors” (Aerpio Therapeutics, Inc., priority 2009, dated 2020).

Series [1] deals with VEGF. The experiment in a line: VEGF ELISA Assay in HEK293 cells. Type of series: cell-based. The note with it: Homo sapiens. How it is done: HEK293 cells are seeded in 96-well poly-lysine coated plates at 20,000 cells per well in DMEM (10% FBS, 1% NEAA, 0.1% glutamine). Following overnight incubation, the cells are washed with 100 μL of Opti-MEM (Gibco, Carlsbad, Calif.) to remove serum. Compound in DMSO is serially diluted (beginning with 100 μM) in Opti-MEM and added to the cells. The conditioned media is analyzed for VEGF with a Quantikine human VEGF immunoassay kit (R&D Systems, Minneapolis, Minn.). Optical density measurements at 450 nm are recorded using the Spectra Max 250 (Molecular Devices, Sunnyvale, Calif.). Data defined as % of DFO stimulation is used to calculate EC50 values with GraphPad Prism 4 software (San Diego, Calif.).
For orientation: In an ELISA, binding on a coated surface is turned into a signal by an enzyme label.

Series [2] can be described thus: Solubility of salts in distilled deionized water (HPLC). In kind it is physicochemical. On the procedure:
The formulator can determine the solubility of the pharmaceutically acceptable salts of the disclosed inhibitors by any method desirable. The following is a non-limiting example of a procedure for evaluating the solubility of a salt of a disclosed inhibitor. A suspension of tert-butyl-{[1-(4-chlorobenzyl)-3-hydroxy-2-oxo-1,2-dihydropyridin-4-yl]methyl}-piperazine-1-carboxylate methanesulfonate (26.6 mg) in distilled deionized water (3.0 mL) is sonicated for 20 min with water bath temperature under 25° C. The suspension is filtered to remove any insoluble salt. The clear filtrate solution (200 μL) is diluted with distilled deionized water (800 μL) and subjected to HPLC analysis. The following are results for the pharmaceutically acceptable salts outlined in Table VII above.

Series [3] concerns Staphylococcus aureus. The note with it: dose-dependent; cited from earlier work.
Series [4] relates to S. aureus. To be noted: murine model of S. aureus skin infection; cited from earlier work.
The subject of series [5] is EPO. The experiment in a line: Mouse Serum EPO Assay. In kind it is in vivo. On the procedure: All animal work is conducted in accordance with the Guide for the Care and Use of Laboratory Animals (National Academy of Sciences; Copyright © 1996). Used in these experiments were 9-10 week old male C57Bl/6 mice from Charles River Laboratory (Portage, Mich.). The mice are orally dosed with vehicle (aqueous carbonate buffer, 50 mM; pH 9.0) or with the compound to be tested in vehicle at 50 mg/kg or 100 mg/kg. The animals are dosed three times: day 1 at 8 AM and 5 PM, and on day 2 at 8 AM. One hour after the first dose, unilateral arterial ligation is performed under anesthesia using isoflurane. The femoral artery is ligated proximal to the origin of the popliteal artery. The contralateral limb undergoes a sham surgical procedure. Ligation is performed in an alternating fashion between right and left hindlimbs. Two hours after the 8 AM dosing on day 2, blood is obtained by ventricular stick while the mice are anesthetized with isoflurane. Serum samples for EPO analysis are obtained using gel clot serum separation tubes. Heart, liver, and gastrocnemius muscles are harvested, snap-frozen in liquid nitrogen, and stored in −80° C. until use.
The mouse serum EPO is detected using Mouse Quantikine Erythropoietin ELISA kit from R&D Systems according to manufacturer's instructions.

The test system of series [6] is phosphoglycerate kinase (PGK) expression. Description: PGK expression in murine embryonic fibroblasts. The note with it: wild type murine embryonic fibroblasts, 1 μM and 10 μM (FIG. 12). In kind it is cell-based. On the procedure: FIG. 11 depicts the up regulation of phosphoglycerate kinase (PGK) expression in wild type murine embryonic fibroblasts as a result of treatment with compound a compound disclosed in Table VIII at dosages of 1 μM (E), 10 μM (F), and 50 μM (G) vs. wild type control (H) and the lack of up regulation of PGK expression in HIF-1 knock out cells as a result of treatment with a compound disclosed in Table VIII at dosages of 1 μM (A), 10 μM (B), and 50 μM (C) and HIF-1 knock out control (D). Both cell types were treated for 7 hours.

[7] abbreviates: HEK293 cells, head prints IC50, method calculates EC50 from % of DFO stimulation, read-out: VEGF IC50.

The term IC50 denotes the concentration at which inhibition is half-maximal. As usually defined, the Solubility is the dissolved amount per volume that the medium holds. The term EC50 denotes the concentration needed to bring the measured effect to its halfway point.

Structures are written as SMILES. Structures can show the parent of a compound that is named as a salt. Where two headings read alike, the source gives them in different places.

Consider `CSCCNCc1ccn(Cc2ccccc2)c(=O)c1O` [Compound C33, 1-benzyl-3-hydroxy-4-{[2-(methylthio)ethylamino]methyl}pyridin-2(1H)-one], for which, in series [1] (setting [7]), the half-maximal inhibitory concentration (IC50) was 53 µM.
With `Cc1ccc(S(=O)(=O)n2ccc(CN3CCC(N4CCCCC4)CC3)c(O)c2=O)cc1` [Compound D10, 1-[(4-methylphenyl)sulfonyl]-3-hydroxy-4-(1,4′-bipiperidin-1′-ylmethyl)pyridin-2(1H)-one], the half-maximal inhibitory concentration (IC50) in series [1] (setting [7]) was 27 µM.
Still for that read-out and setting: in the case of `Cc1ccc(S(=O)(=O)n2ccc(CN3CCN(c4ccc(Cl)nn4)CC3)c(O)c2=O)cc1` [Compound D14, 1-[(4-methylphenyl)sulfonyl]-3-hydroxy-4-{[4-(6-chloropyridazin-3-yl)piperazin-1-yl]methyl}pyridin-2(1H)-one] it was 19 µM; in that of `O=C1NCCCCC1NCc1ccn(Cc2ccccc2)c(=O)c1O` (centres unmarked) [Compound C19, 3-[(1-benzyl-3-hydroxy-2-oxo-1,2-dihydropyridin-4-yl)methylamino]azepan-2-one], 62.9 µM; in that of `O=c1c(O)c(CNCc2ccccc2)ccn1Cc1ccc(Cl)cc1` [Compound C1, 1-(4-chlorobenzyl)-3-hydroxy-4-[(4-benzylamino)methyl]pyridin-2(1H)-one], 42 µM.
As for `COC[C@H]1CCCN1Cc1ccn(Cc2ccccc2)c(=O)c1O` [Compound B5, (R)-1-benzyl-3-hydroxy-4-{[2-(methoxymethyl)pyrrolidin-1-yl]methyl}pyridin-2(1H)-one], in series [1] (setting [7]), the IC50 is 53 µM.
On to `COc1ccccc1Cn1ccc(CN2CCCCCC2)c(O)c1=O` [Compound A18, 1-(2-methoxybenzyl)-3-hydroxy-4-(azepan-1-ylmethyl)pyridin-2(1H)-one], for which the IC50 in series [1] (setting [7]) was 29.2 µM.
For the compound `O=c1c(O)c(CN2CCN(Cc3ccccc3)CC2)ccn1Cc1ccccc1` [Compound B9, 1-benzyl-3-hydroxy-4-[(4-benzyipiperazin-1-yl)methyl]pyridin-2(1H)-one], the IC50 in series [1] (setting [7]) is 12.6 µM.
Regarding `CC(C)(C)OC(=O)N1CCN(Cc2ccn(Cc3ccc(Cl)cc3)c(=O)c2O)CC1` [hydrochloride, tert-butyl-{[1-(4-chlorobenzyl)-3-hydroxy-2-oxo-1,2-dihydropyridin-4-yl]methyl}-piperazine-1-carboxylate], in series [2], the “Solubility” value was found to be 5900 µg/mL.
For the compound `O=c1c(O)cccn1Cc1ccc(Cl)cc1` [Compound F3, 1-(4-chlorobenzyl)-3-hydroxypyridin-2(1H)-one], the 50% inhibitory concentration (IC50) in series [1] (setting [7]) was 7.4 µM.
Consider `CC1CCC(NCc2ccn(Cc3ccccc3)c(=O)c2O)CC1` (centres unmarked) [Compound C17, 1-benzyl-3-hydroxy-4-[(4-methylcyclohexylamino)methyl]pyridin-2(1H)-one], for which the IC50 in series [1] (setting [7]) is 27.4 µM.
For the compound `O=c1c(O)c(CN2CCN(c3ccc(Cl)nn3)CC2)ccn1Cc1ccccc1` [Compound B14, 1-benzyl-3-hydroxy-4-{[4-(6-chloropyridazin-3-yl)piperazin-1-yl]methyl}pyridin-2(1H)-one], the half-maximal inhibitory concentration (IC50) in series [1] (setting [7]) was 78 µM.
As to `CC(C)(C)OC(=O)N1CCN(Cc2ccn(Cc3ccc(Cl)cc3)c(=O)c2O)CC1` [Compound A41, tert-butyl 4-{[1-(4-chlorobenzyl)-3-hydroxy-2-oxo-1,2-dihydropyridin-4-yl]methyl}piperazine-1-carboxylate], in series [2] (distilled deionized water, sonicated 20 min, under 25° C., listed as Free base), the “Solubility” value is about 1 µg/mL. Moreover, the IC50 in series [1] (HEK293, read-out: VEGF IC50 (μM)) turned out to be 16.6 µM.
Take `NC(Cn1ccc(=O)c(O)c1)C(=O)O` (centres unmarked) [mimosine]: the “capacity of human phagocytes and whole blood to kill Staphylococcus aureus” value in series [3] is reported as “boost”. Moreover, the lesion size entry in series [4] is listed as “reduce the lesion size”.
As for `CC(C)(C)OC(=O)N1CCN(Cc2ccn(Cc3ccc(Cl)cc3)c(=O)c2O)CC1` [p-toluenesulfonate, tert-butyl-{[1-(4-chlorobenzyl)-3-hydroxy-2-oxo-1,2-dihydropyridin-4-yl]methyl}-piperazine-1-carboxylate], the “Solubility” value in series [2] came to 2300 µg/mL.
In turn, `O=c1c(O)cccn1Cc1cccc(Cl)c1` [Compound F2, 1-(3-chlorobenzyl)-3-hydroxypyridin-2(1H)-one] returned a half-maximal effective concentration (EC50) in series [5] of 14 µM. Further, the PGK expression result in series [6] is recorded as “up regulation”. Moreover, the IC50 in series [1] (setting [7]) is over 100 µM.
